Target: CyaB (Pseudomonas aeruginosa, UniProt Q9HZ23)
Experiment: adenylyl cyclase activity assay with purified enzyme
Type: biochemical

KH7.148
IC50: ~10 µM

— PMC3269522 (2011)
